From patent US10973831B2, “Fluoropiperidine compounds as pure 5-HT 6 receptor antagonists” (SUVEN LIFE SCIENCES LIMITED, priority 2017, dated 2021)

Assays:
[1] = target: T1, recombinant human 5-HT6 receptor (Homo sapiens, UniProt P50406); experiment: Determination of Kb for 5-HT6 receptor (CHO cells, pCRE-Luc reporter, cAMP); assay type: cell-based; details: 10 μM serotonin, luciferase reporter
T1 construct: expressed in transfected cells
Method: Determination of Kb for 5-HT6 Receptor: A stable CHO cell line expressing recombinant human 5-HT6 receptor and pCRE-Luc reporter system was used for cell based assay. The assay offers a non-radioactive based approach to determine binding of a compound to GPCRs. In this specific assay, the level of intracellular cyclic AMP which is modulated by activation or inhibition of the receptor is measured. The recombinant cells harbor luciferase reporter gene under the control of cAMP response element. The above cells were plated in 96 well clear bottom white plates at a density of 5×10^4 cells/well using Hams F12 medium containing 10% fetal bovine serum (FBS) and incubated overnight at 37° C. and 5% CO2 followed by serum starvation for 18-20 hrs. Increasing concentrations of test compounds were added along with 10 μM serotonin in Opti-MEM to the cells. The incubation was continued at 37° C. in CO2 incubator for 4 hours. After 4 hours cells were lysed using lysis buffer and luciferase assay buffer was added to each well and counts per second were recorded using luminescence counter. From counts per second (CPS) obtained, percent binding was calculated for each well by taking 10 μM 5-HT as 100% bound and vehicle as 0% bound. The percent bound values were plotted against compound concentrations and data were analyzed using a nonlinear, iterative curve-fitting computer program of Graph pad Prism 4 software. The Kb values were calculated using concentration of the agonist used in the assay.

[2] = system: extracellular levels of acetylcholine in ventral hippocampus; experiment: Acetylcholine modulation in ventral hippocampus (microdialysis); assay type: in vivo, male Wistar rats; details: Example 1 10 mg/kg; for acetylcholine peak levels, % of pre-dose levels: p.o. in combination with donepezil 1 mg/kg, s.c.
From the text: Four groups of male Wistar rats (240-300 g body weight) were stereotaxically implanted with a microdialysis guide cannula in ventral hippocampus (AP: −5.2 mm, ML: +5.0 mm, DV: −3.8 mm) under isoflurane anesthesia. Co-ordinates were taken according to atlas for the rat brain (Paxinos and Watson 2004) with reference points taken from bregma and vertical from the skull. […] After surgical recovery of 4-5 days, male Wistar rats were connected to dual quartz lined two-channel liquid swivel (Instech, UK) on a counter balance lever arm, which allowed unrestricted movements of the animal. […] On the day of study, probe was perfused with artificial cerebrospinal fluid (aCSF; NaCl 147 mM, KC13 mM, MgCl2 1 mM, CaCl2. 2H2O 1.3 mM, NaH2PO4.2H2O 0.2 mM and Na2HPO4.7H2O 1 mM, pH 7.2) at a flow rate of 1.5 μL/min and a stabilization period of 2 h was maintained. […] Dialysate samples were collected for an additional period of 4 h post treatment of example 1. Dialysates were stored below −50° C. prior to analysis. Acetylcholine in dialysate was quantified using LC-MS/MS method in the calibration range of 0.099 nmol/L-70.171 nmol/L. […] Incorrect probe placement was considered as criteria to reject the data from animal.

T1 sequence (P50406 whole entry): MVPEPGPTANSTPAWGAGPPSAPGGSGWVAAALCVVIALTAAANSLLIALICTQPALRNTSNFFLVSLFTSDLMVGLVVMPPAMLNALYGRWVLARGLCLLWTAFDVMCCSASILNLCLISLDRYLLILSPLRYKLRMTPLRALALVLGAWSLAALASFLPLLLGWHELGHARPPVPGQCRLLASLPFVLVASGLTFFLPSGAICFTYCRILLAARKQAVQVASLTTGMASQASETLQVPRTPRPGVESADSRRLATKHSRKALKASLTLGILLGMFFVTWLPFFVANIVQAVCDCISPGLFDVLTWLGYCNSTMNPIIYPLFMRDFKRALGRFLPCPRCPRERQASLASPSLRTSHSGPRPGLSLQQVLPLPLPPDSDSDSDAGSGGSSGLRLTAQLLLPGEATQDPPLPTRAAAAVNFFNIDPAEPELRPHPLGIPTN

Cl.O=S(=O)(c1ccccc1)c1ccc2c(c1)OCCN2C1CCNCC1F (single isomer, unassigned; peak iii) [Example 1, 7-Phenylsulfonyl-4-(3-fluoropiperidin-4-yl)-3,4-dihydro-2H-benzo[1,4]oxazine hydrochloride (Peak III)]
Kb [1]: 40 pM
Mean area under the curve values (AUC) of percent change in acetylcholine ([2]; p.o. + donepezil + memantine, compared to donepezil and memantine combination): significantly higher
Mean area under the curve values (AUC) of percent change in acetylcholine ([2]; p.o. + donepezil, compared to donepezil 1 mg/kg, s.c. alone): significantly higher
acetylcholine peak levels, % of pre-dose levels [2]: 1445±247%
acetylcholine peak levels, % of pre-dose levels ([2]; s.c. and memantine 1 mg/kg): 2822±415%
